Source: the Bradley open melting point set (2014)
Values joined by “and” are separate entries in the source; they are usually repeats but may differ in a detail not shown here. Equal entries are not always repeated.

Structure (SMILES) | melting point
CCOC(=O)C1(c2ccccc2)CCN(CCc2ccc(N)cc2)CC1 [anileridine] | 83 °C
COc1ccccc1 [anisole] | -37 °C
c1ccc(CN(CC2=NCCN2)c2ccccc2)cc1 [antazoline] | 120 °C
Nc1ccccc1C(=O)O [anthranilic acid] | 147 °C
Cc1cc(=O)n(-c2ccccc2)n1C [antipyrine] [listing 1 of 2 here] | 113 °C
Cc1cc(=O)n(-c2ccccc2)n1C [antipyrine] [listing 2 of 2 here] | 112 °C
CCCCCCCCCCCCCCCCCCCC(=O)O [arachidic acid] | 75 °C
OC[C@H]1O[C@@H](Oc2ccc(O)cc2)[C@H](O)[C@@H](O)[C@@H]1O [arbutin] | 198 °C
O=C1O[C@H]([C@@H](O)CO)C(O)=C1O [ascorbic acid] | 191 °C
NCC(CC(=O)O)c1ccc(Cl)cc1 (stereo not drawn) [baclofen] | 208 °C
CCCCCCCCCCCCCCCCCCCCCC(=O)O [behenic acid] | 76 °C
CCN(CC)CCOC(=O)C(O)(c1ccccc1)c1ccccc1 [benactyzin] | 51 °C
ClC(Cl)c1ccccc1 [benzal chloride] | -16 °C
C(=N\c1ccccc1)/c1ccccc1 [benzalaniline] | 51 °C and 49 °C and 46 °C
NC(=O)c1ccccc1 [benzamide] | 126 °C and 127 °C
O=C(Nc1ccccc1)c1ccccc1 [benzanilide] | 164 °C
c1ccc2cc3c(ccc4ccccc43)cc2c1 [benzanthracene] | 160 °C
CCc1oc2ccccc2c1C(=O)c1ccc(O)cc1 [benzarone] | 124 °C
NS(=O)(=O)c1ccccc1 [benzenesulfonamide] | 153 °C
OC(c1ccccc1)c1ccccc1 [benzhydrol] | 66 °C
BrC(c1ccccc1)c1ccccc1 [benzhydryl bromide] | 39 °C
O=C(C(=O)c1ccccc1)c1ccccc1 [benzil] | 95 °C

Structure (SMILES) | melting point
c1ccc2c(c1)OCCOCCOCCOCCOCCO2 [benzo-18-crown-6] | 44 °C
O=C(O)c1cc2ccccc2s1 [benzo[b]thiophene-2-carboxylic acid] | 239 °C
O=C(O)c1ccc2c(c1)no[n+]2[O-] [benzofuroxan-5-carboxylic acid] | 128 °C
[O-][n+]1onc2ccccc21 [benzofuroxan] | 69 °C
O=C(O)c1ccccc1 [benzoic acid] | 122 °C (5×) and 123 °C (2×)
N#Cc1ccccc1 [benzonitrile] | -13 °C
O=C(c1ccccc1)C(c1ccccc1)(c1ccccc1)c1ccccc1 [benzopinacolone] | 182 °C
O=C(Cl)c1ccccc1 [benzoyl chloride] | -1 °C
O=C(CC(=O)c1ccccc1O)c1ccccc1 [benzoyl(2-hydroxybenzoyl)methane] | 120 °C
N#CCC(=O)c1ccccc1 [benzoylacetonitrile] | 81 °C
CC(=O)OC1C(C)OC(OCc2ccccc2)C(OC(C)=O)C1OC(C)=O (stereo not drawn) [benzyl 2,3,4-tri-O-acetyl-6-deoxyhexopyranoside] | 112 °C
ClCc1ccccc1 [benzyl chloride] | -43 °C
ClCc1ccccc1 [benzyl_chloride] | -43 °C
CC(=O)N[C@H]1[C@H](OC(C)=O)O[C@H](COC(C)=O)[C@@H](OC(C)=O)[C@@H]1OC(C)=O [beta-D-glucosamine pentaacetate] | 187 °C
NCCC(=O)O [beta-alanine] | 200 °C
BrC=Cc1ccccc1 [beta-bromostyrene, cis trans] | -8 °C
c1ccc2c(-c3cccc4ccccc34)cccc2c1 [binaphthyl] | 154 °C
COc1ccc(C(=O)c2ccc(-c3ccccc3)cc2)cc1OC [biphenyl-4-yl(3,4-dimethoxyphenyl)methanone] | 108 °C
c1ccc2c(c1)-c1ccccc1-2 [biphenylene] | 115 °C
CCCCC(CC)COC(=O)CCCCC(=O)OCC(CC)CCCC (stereo not drawn) [bis(2-ethylhexyl) adipate] | -67 °C
CC(C)(c1ccc(O)cc1)c1ccc(O)cc1 [bisphenol a] | 156 °C
CC(C)(C)OC(=O)O/N=C(\C#N)c1ccccc1 [boc-on] | 88 °C

Structure (SMILES) | melting point
CB(C)Br [bromodimethylborane] | -129 °C
BrC(c1ccccc1)c1ccccc1 [bromodiphenylmethane] | 41 °C
CCBr [bromoethane] | -119 °C
Cc1c(C)c(C)c(Br)c(C)c1C [bromopentamethylbenzene] | 162 °C
Cc1c(C2(c3cc(C(C)C)c(O)c(Br)c3C)OS(=O)(=O)c3ccccc32)cc(C(C)C)c(O)c1Br [bromothymol blue] | 201 °C
C[Si](C)(C)Br [bromotrimethylsilane] | -44 °C
BrC(=C(c1ccccc1)c1ccccc1)c1ccccc1 [bromotriphenylethylene] | 114 °C
BrC(c1ccccc1)(c1ccccc1)c1ccccc1 [bromotriphenylmethane] | 154 °C
CCOc1ccc(NC(=O)CC(C)O)cc1 (stereo not drawn) [bucetin] | 160 °C
CCCCN1CCCCC1C(=O)Nc1c(C)cccc1C (stereo not drawn) [bupivacaine] | 107 °C
CCCCOC(=O)c1ccc(N)cc1 [butamben] | 58 °C
CCCC=O [butanal] | -97 °C
CCCC(=O)O [butanoic_acid] | -5 °C
CCCCc1ccccc1 [butylbenzene] | -88 °C
CCCCOC(=O)c1ccc(O)cc1 [butylparaben] | 68.5 °C
CCCC=NO [butyraldoxime] | -29 °C
CCCC(=O)O [butyric acid] | -5.7 °C
CCCC#N [butyronitrile] | -112 °C
NC(=O)N1c2ccccc2C=Cc2ccccc21 [carbamazepine] | 190 °C
ClC(Cl)(Cl)Cl [carbon tetrachloride] | -23 °C (4×) and -22.9 °C
CCCC(C)(COC(N)=O)COC(=O)NC(C)C (stereo not drawn) [carisoprodol] | 92 °C
B1Oc2ccccc2O1 [catecholborane] | 12 °C

Structure (SMILES) | melting point
CCN(CC)C(=O)Nc1ccc(OCC(O)CNC(C)(C)C)c(C(C)=O)c1 (stereo not drawn) [celiprolol] | 110 °C
OC(O)C(Cl)(Cl)Cl [chloral hydrate] | 57 °C
O=C(N[C@H](CO)[C@H](O)c1ccc([N+](=O)[O-])cc1)C(Cl)Cl [chloramphenicol] | 151 °C
O=C1OC(=O)C2C1C1(Cl)C(Cl)=C(Cl)C2(Cl)C1(Cl)Cl (stereo not drawn) [chlorendic anhydride] | 237 °C
O=C(CCl)OC(=O)CCl [chloroacetic anhydride] | 58 °C
ClC(Br)Br [chlorodibromomethane] | -22 °C
C[SiH](C)Cl [chlorodimethylsilane] | -111 °C
C[Si](C)(C)Cl [chlorotrimethylsilane] | -58 °C
CN(C)[C@@H]1C(O)=C(C(N)=O)C(=O)[C@@]2(O)C(O)=C3C(=O)c4c(O)ccc(Cl)c4[C@@](C)(O)[C@H]3C[C@@H]12 [chlortetracycline] | 168 °C
CC(C)CCCC(C)C1CCC2C3CCC4CCCCC4(C)C3CCC12C (stereo not drawn) [cholestane] | 80 °C
CC(C)CCC[C@@H](C)[C@H]1CC[C@H]2[C@@H]3CC=C4C[C@@H](O)CC[C@]4(C)[C@H]3CC[C@]12C [cholesterol] | 148 °C (3×) and 149 °C
c1ccc2c(c1)ccc1c3ccccc3ccc21 [chrysene] | 255 °C
CC[C@@H]1CCC[C@@H]1CC [cis-1,2-diethylcyclopentane] | -118 °C
C[C@@H]1CCC[C@H](C)C1 [cis-1,3-dimethylcyclohexane] | -76 °C
ClC/C=C\CCl [cis-1,4-dichloro-2-butene] | -48 °C
C/C=C\Br [cis-1-bromo-1-propene] | -113 °C
C/C=C\c1ccccc1 [cis-1-phenyl-1-propene] | -62 °C
C[C@@H]1CNC[C@H](C)O1 [cis-2,6-dimethylmorpholine] | -85 °C
O=C(O)/C=C(/CC(=O)O)C(=O)O [cis-aconitic acid] | 118 °C
C1CC[C@H]2CCCC[C@H]2C1 [cis-decalin] | -43 °C
C(=C/c1ccccc1)/c1ccccc1 [cis-stilbene] | 2 °C
COC(=O)[C@H]1[C@@H](OC(=O)c2ccccc2)C[C@@H]2CC[C@H]1N2C [cocaine] | 98 °C

Structure (SMILES) | melting point
COc1cc(/C=C/CO)ccc1O [coniferyl alcohol] | 76 °C
O=C4\C=C2/[C@]([C@H]1CC[C@@]3([C@@](O)(C(=O)CO)CC[C@H]3[C@@H]1CC2)C)(C)CC4 [cortexolone] | 208 °C
C[C@]12C[C@H](O)[C@H]3[C@@H](CCC4=CC(=O)CC[C@@]43C)[C@@H]1CC[C@@H]2C(=O)CO [corticosterone] | 145 °C
COc1cc(/C=C/C(=O)CC(=O)/C=C/c2ccc(O)c(OC)c2)ccc1O [curcumin] | 173 °C
N#CCC(=O)O [cyanoacetic acid] | 67 °C
O=C1CCC1 [cyclobutanone] | -51 °C
O=C1CCCCCCCCCCC1 [cyclododecanone] | 61 °C
C1CCCCC1 [cyclohexane] | 7 °C
O=C(O)C1CCCCC1 [cyclohexanecarboxylic acid] [listing 1 of 3 here] | 30 °C
O=C(O)C1CCCCC1 [cyclohexanecarboxylic acid] [listing 2 of 3 here] | 31 °C
O=C(O)C1CCCCC1 [cyclohexanecarboxylic acid] [listing 3 of 3 here] | 31.5 °C
O=C1CCCCC1 [cyclohexanone] | -29 °C and -27.9 °C
O=C(c1ccccc1)C1CCCCC1 [cyclohexyl phenyl ketone] | 55 °C
c1ccc(C2CCCCC2)cc1 [cyclohexylbenzene] | 6 °C
C1CCCC1 [cyclopentane] | -94 °C (2×) and -93.9 °C
O=C(O)C1CCCC1 [cyclopentanecarboxylic acid] | 3.5 °C
OC1CCCC1 [cyclopentanol] [listing 1 of 3 here] | -17.5 °C and -16.2 °C
OC1CCCC1 [cyclopentanol] [listing 2 of 3 here] | -19 °C
OC1CCCC1 [cyclopentanol] [listing 3 of 3 here] | -19 °C
O=C1CCCC1 [cyclopentanone] | -51 °C
